PubChem BioAssay (NCI)
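Where inhibition never reached the appropriate level, the endpoint shown equals the highest concentration tested. Otherwise, values were interpolated linearly from a five-concentration, 48-hour dose response in 96-well plates. The concentration for 50% growth inhibition is given as GI50. The concentration for full growth arrest is given as TGI.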

Columns and labels:
Experiment in all cases: NCI-60 cell line screen, 48 h
SK-MEL-5 melanoma = test system: SK-MEL-5 melanoma
NCI-H460 lung = test system: NCI-H460 lung
RPMI-8226 leukemia = test system: RPMI-8226 leukemia
TK-10 renal = test system: TK-10 renal
SK-OV-3 ovarian = test system: SK-OV-3 ovarian
COLO 205 colon = test system: COLO 205 colon
HCC-2998 colon = test system: HCC-2998 colon
MDA-MB-231 breast = test system: MDA-MB-231 breast
LOX IMVI melanoma = test system: LOX IMVI melanoma
OVCAR-3 ovarian = test system: OVCAR-3 ovarian
NCI-H522 lung = test system: NCI-H522 lung
UO-31 renal = test system: UO-31 renal
HCT-15 colon = test system: HCT-15 colon
U251 CNS = test system: U251 CNS
SNB-75 CNS = test system: SNB-75 CNS
UACC-62 melanoma = test system: UACC-62 melanoma
PC-3 prostate = test system: PC-3 prostate
SW-620 colon = test system: SW-620 colon
M14 melanoma = test system: M14 melanoma
MCF7 breast = test system: MCF7 breast
SF-295 CNS = test system: SF-295 CNS
SK-MEL-28 melanoma = test system: SK-MEL-28 melanoma
786-0 renal = test system: 786-0 renal
MDA-MB-435 = test system: MDA-MB-435
HL-60(TB) leukemia = test system: HL-60(TB) leukemia
T-47D breast = test system: T-47D breast
RXF 393 renal = test system: RXF 393 renal
SK-MEL-2 melanoma = test system: SK-MEL-2 melanoma

Work on `Cc1ccc(-c2cn3ccnc3c(-c3ccc(Cl)cc3)n2)cc1` yielded a GI50 (SK-MEL-5 melanoma) of 62.7 nM, a TGI (SK-MEL-5 melanoma) of 11.4 µM and a GI50 (NCI-H460 lung) of 91.6 nM. The TGI (NCI-H460 lung) was 13.1 µM, the GI50 (RPMI-8226 leukemia) was 207 nM and the TGI (RPMI-8226 leukemia) was > 39.5 µM. It also gave a GI50 (TK-10 renal) of 419 nM, a TGI (TK-10 renal) of 24.8 µM and a GI50 (SK-OV-3 ovarian) of 714 nM. For the same compound, the TGI (SK-OV-3 ovarian) was > 94 µM, the GI50 (COLO 205 colon) was 200 nM and the TGI (COLO 205 colon) was > 29.3 µM. The GI50 (HCC-2998 colon) was 2130 nM, the TGI (HCC-2998 colon) was 11.4 µM and the GI50 (MDA-MB-231 breast) was 506 nM. For the same compound, the TGI (MDA-MB-231 breast) was 50.1 µM, the GI50 (LOX IMVI melanoma) was 384 nM and the TGI (LOX IMVI melanoma) was 12.4 µM. The GI50 (OVCAR-3 ovarian) was 41.2 nM, the GI50 (NCI-H522 lung) was 1980 nM and the TGI (NCI-H522 lung) was > 8.22 µM. For the same compound, the TGI (UO-31 renal) was > 100 µM, the GI50 (HCT-15 colon) was 1230 nM and the TGI (HCT-15 colon) was > 35.6 µM. It also gave a GI50 (U251 CNS) of 786 nM, a TGI (U251 CNS) of 18.1 µM and a GI50 (SNB-75 CNS) of 465 nM. For the same compound, the TGI (SNB-75 CNS) was 24.5 µM, the GI50 (UACC-62 melanoma) was 137 nM and the TGI (UACC-62 melanoma) was 35.9 µM. The GI50 (PC-3 prostate) was 356 nM, the TGI (PC-3 prostate) was > 100 µM and the GI50 (SW-620 colon) was < 21.7 nM. For the same compound, the TGI (SW-620 colon) was > 61.2 µM, the GI50 (M14 melanoma) was 416 nM and the TGI (M14 melanoma) was > 36.3 µM. For the same compound, the GI50 (MCF7 breast) was 280 nM, the TGI (MCF7 breast) was 19.2 µM and the GI50 (SF-295 CNS) was 26.8 nM. For the same compound, the TGI (SF-295 CNS) was 2330 nM, the GI50 (SK-MEL-28 melanoma) was 518 nM and the TGI (SK-MEL-28 melanoma) was 44 µM. The GI50 (786-0 renal) was 966 nM, the TGI (786-0 renal) was > 59.8 µM and the GI50 (MDA-MB-435) was < 12.6 nM. For the same compound, the TGI (MDA-MB-435) was 185 nM, the GI50 (HL-60(TB) leukemia) was 85.6 nM and the TGI (HL-60(TB) leukemia) was > 100 µM. For the same compound, the GI50 (T-47D breast) was 8.12 µM, the TGI (T-47D breast) was > 58.5 µM and the GI50 (RXF 393 renal) was 2160 nM. For the same compound, the TGI (RXF 393 renal) was > 100 µM, the GI50 (SK-MEL-2 melanoma) was 9.27 µM and the TGI (SK-MEL-2 melanoma) was > 100 µM.
